Experimental data: article PMC8474110 (Journal of Medicinal Chemistry, 2021)
Read-outs that look alike come from different tables or passages of the source.

Key:
[1] = Chemical stability (kinetics of chemical hydrolysis) in buffer solutions; type: physicochemical; conditions: for half-life at 9.1 µM: read-out: t1/2, chemical stability (converted)
Description: The chemical stability of (±)-1 was evaluated in buffer solutions at pH 1.3 and 7.4 (Table 1).
A 0.02 M phosphate buffer (PBS, pH 7.4) and a 0.02 M hydrochloric buffer (pH 1.3) containing 0.1% (v/v) Cremophor ELP, was used to evaluate chemical stabilities at physiological pHs. The reaction was initiated by adding 1 mL of 10^–4 M stock solution (in acetonitrile) of the compound to 10 mL of thermostated (37 ± 0.5 °C) buffer solution. At established time points, the samples (20 μL) were withdrawn and analyzed by HPLC. Pseudo-first-order rate constants (kobs) for the hydrolysis of the compounds were then calculated considering the slopes of the linear plots of log (% residual compound) against time. The analyses were run in triplicate, and the mean values of the rate constants were calculated.

[2] = tested on: VEGF-A-stimulated human retinal endothelial cells (HRECs); design: method as in PMID 27739690; conditions: cited from earlier work
[3] = tested on: HREC stimulated with VEGF-A; assay: Crystal violet proliferation assay in HREC with or without VEGF-A; type: cell-based, human; conditions: 24 h; for effect of coincubation with PTZ on the compound's anti-VEGF-A activity on HREC proliferation: 5 μM compound + 2 μM PTZ (σ1 agonist); for effect of coincubation with PTZ on the compound's anti-VEGF-A activity on HREC proliferation / effect on VEGF-A-mediated HREC proliferation / effect of coincubation with AC927 on the compound's anti-VEGF-A activity on HREC proliferation: 80 ng/mL VEGF-A; for effect on VEGF-A-mediated HREC proliferation / effect on HREC proliferation under basal conditions: 5 μM; for effect on HREC proliferation under basal conditions: no VEGF-A; for effect of coincubation with AC927 on the compound's anti-VEGF-A activity on HREC proliferation: 5 μM compound + 2 μM AC927 (σ2 antagonist)
Description: As expected, VEGF-A exerted a proangiogenic effect by increasing cell proliferation by about 45% (at 24 h) with respect to the untreated control (Figure 2).
Control cells received an equal volume of vehicle (DMSO). At the end of the treatment, each well was washed with phosphate-buffered saline (PBS). Following this, the cells were fixed (in 4% paraformaldehyde) and stained with crystal violet solution (0.5% in 20% methanol for HREC or 1% aqueous solution for 92-1 cells). Subsequently, the plate was washed with water and left to dry. Crystal violet staining was evaluated by measuring the absorbance at 570 nm or 590 nm, after crystal violet extraction with 10% acetic acid (at room temperature for 10 min), with a microplate reader with the plate reader (Synergy 2-BioTek). For quantification, each assay was carried out in triplicate.

HREC [4] = conditions: cited from earlier work
σ1 receptor = molecular target: T1, σ1 receptor (Cavia porcellus, UniProt Q60492); assay: σ1 receptor binding assay, [3H]-(+)-pentazocine, guinea pig brain membranes
T1 construct: from tissue; host or cells: guinea pig brain membranes
T1 sequence (Q60492 whole entry): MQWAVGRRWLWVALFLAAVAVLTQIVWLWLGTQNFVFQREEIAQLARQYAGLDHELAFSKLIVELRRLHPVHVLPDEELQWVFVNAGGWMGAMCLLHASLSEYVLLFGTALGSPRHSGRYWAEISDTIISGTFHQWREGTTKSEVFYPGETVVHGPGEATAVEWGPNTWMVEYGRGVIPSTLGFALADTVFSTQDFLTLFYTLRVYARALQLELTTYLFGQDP
Description: (§1) The σ1 and σ2 receptor binding studies were performed according to the literature.[46],[47] Briefly, for the σ1 receptor binding assay, guinea pig brain membranes (400 μL, 500 μg protein) were incubated for 150 min at 37 °C with 3 nM of the radiolabeled ligand [^3H]-(+)-pentazocine (45 Ci/mmol) and increasing concentrations of tested compounds in 50 mM Tris-HCl (pH 7.4) to a total volume of 1 mL. […] Moreover, σ2 receptor binding assays were made according to the following protocol: the guinea pig brain membranes (300 μL, 360 μg protein) were incubated for 120 min at room temperature with 3 nM [^3H]-DTG (31 Ci/mmol) in the presence of 0.4 mM […] (+)-SKF10,047 to block the σ1 sites. The incubation was performed in 50 mM Tris-HCl (pH 8.0) to a total volume of 0.5 mL with increasing concentrations of each test compound. Nonspecific binding was evaluated in the presence of 5 μM DTG.
(§2) Each sample was filtered through Whatman GF/B glass fiber filters, which were presoaked for 1 h in a 0.5% poly(ethylenimine) solution, using a Millipore filter apparatus. Filters were washed twice with 4 mL of ice-cold buffer. Radioactivity was counted in 4 mL of “Ultima Gold MV” in a 1414 WinSpectral PerkinElmer Wallac or Beckman LS6500 scintillation counter. Inhibition constants (Ki values) were calculated using the EBDA/LIGAND program purchased from Elsevier/Biosoft.

σ2 receptor = molecular target: T2, σ2 receptor (Cavia porcellus, UniProt H0V073); assay: σ2 receptor binding assay, [3H]-DTG, guinea pig brain membranes
T2 construct: the guinea pig brain membranes (300 μL, 360 μg protein) were incubated for 120 min at room temperature with 3 nM [^3H]-DTG; from tissue; host or cells: guinea pig brain membranes
T2 sequence (H0V073 1-176): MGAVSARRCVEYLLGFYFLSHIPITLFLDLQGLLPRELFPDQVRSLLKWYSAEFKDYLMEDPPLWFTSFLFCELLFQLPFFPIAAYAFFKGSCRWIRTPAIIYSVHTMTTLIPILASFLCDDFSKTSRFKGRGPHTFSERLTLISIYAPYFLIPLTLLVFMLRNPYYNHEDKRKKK
Description: as §1, §2

HREC [5] = assay: MTT viability test on HREC; type: cell-based; conditions: Homo sapiens
Description: To dissect enantiomer contributions to antiangiogenic effects by (±)-1, compounds (+)-1 and (−)-1 were evaluated on HREC, an endothelial cell model of angiogenesis.[40] First, HREC viability was assessed by the 3-[4,5–dimethylthiazol-2-yl]-2,5-diphenyltetrazolium bromide (MTT) assay to verify the tolerability of the enantiomers, and different concentrations (1.0, 2.5, 5.0, 10.0, and 20.0 μM) of the compounds were tested for 24, 48, and 72 h. The IC50 values of (+)-1 and (−)-1 were calculated and compared to (±)-1 and its precursors (Table 3).
For cell viability assays, the 3-[4,5–dimethylthiazol-2-yl]-2,5-diphenyltetrazolium bromide (MTT assay, Chemicon, Temecula, CA) was used. The cells were seeded in 96-well plates at a density of 1.5 × 10^4 cells/well and were incubated overnight at 37 °C before the experiment. Afterward, the cells were treated for 24, 48, and 72 h in the presence of different concentrations (1.0, 2.5, 5.0, 10.0, 20.0 μM) of (±)-1, (+)-1, or (−)-1. After the treatments, the cells were incubated with MTT (5 mg/mL) for 3 h, and then 100 μL of dimethyl sulfoxide was added, and the absorbance was read in a plate reader (Synergy 2-BioTek) with a wavelength of 570 nm.

[6] = 24 h, read-out: IC50, MTT viability test on HREC
[7] = 24 h, read-out: pIC50 ± SE, MTT viability test on HREC (converted)
[8] = 48 h, read-out: IC50, MTT viability test on HREC
[9] = 48 h, read-out: pIC50 ± SE, MTT viability test on HREC (converted)
[10] = 72 h, read-out: IC50, MTT viability test on HREC
[11] = 72 h, read-out: pIC50 ± SE, MTT viability test on HREC (converted)

## CCCC(CCC)C(=O)OC(CCCN1CCC(O)(c2ccc(Cl)cc2)CC1)c1ccc(F)cc1 (racemic) [(±)-1]
[1]; buffer pH 1.3, 37 °C
  Kobs, chemical stability: 0.007 ± 0.001 h^–1
[1]; buffer pH 7.4, 37 °C
  Kobs, chemical stability: 0.007 ± 0.001 h^–1
[1]; buffer solutions at pH 1.3 and 7.4 (both environments)
  time the racemate was stable: about 4 days
[1]; hydrochloric buffer, buffer pH 1.3, 37 °C
  half-life at 9.1 µM: 100 ± 3.1 h
[1]; phosphate buffer, buffer pH 7.4, 37 °C
  half-life at 9.1 µM: 96.4 ± 1.6 h
[2]
  reduction of cell migration and proliferation, times more than (±)-HP-mII: 20 times
  reduction of cell migration and proliferation, times more than VPA: 120 times
[3]
  effect of coincubation with PTZ on the compound's anti-VEGF-A activity on HREC proliferation: partially counteracted
  effect on VEGF-A-mediated HREC proliferation: completely prevented
  effect on HREC proliferation under basal conditions: did not induce significant changes
HREC [4]; 24 h
  pIC50 ± SE, MTT viability test on HREC: 4.98 ± 0.02
HREC [4]; 48 h
  pIC50 ± SE, MTT viability test on HREC: 4.95 ± 0.03
HREC [4]; 72 h
  pIC50 ± SE, MTT viability test on HREC: 4.99 ± 0.04

## CCCC(CCC)C(=O)O[C@H](CCCN1CCC(O)(c2ccc(Cl)cc2)CC1)c1ccc(F)cc1 [(+)-1]
σ1 receptor
  Ki: 0.064 ± 0.0082 µM
σ2 receptor
  Ki: 0.074 ± 0.0089 µM
HREC [5]; [6]
  IC50: 9.8 µM
HREC [5]; [7]
  IC50: 9.77 µM
HREC [5]; [8]
  IC50: 6.4 µM
HREC [5]; [9]
  IC50: 6.46 µM
HREC [5]; [10]
  IC50: 4.4 µM
HREC [5]; [11]
  IC50: 4.47 µM
[3]
  effect of coincubation with AC927 on the compound's anti-VEGF-A activity on HREC proliferation: did not alter
  effect of coincubation with PTZ on the compound's anti-VEGF-A activity on HREC proliferation: did not alter
  effect on VEGF-A-mediated HREC proliferation: completely prevented
  effect on HREC proliferation under basal conditions: did not induce significant changes

## CCCC(CCC)C(=O)O[C@@H](CCCN1CCC(O)(c2ccc(Cl)cc2)CC1)c1ccc(F)cc1 [(−)-1]
σ1 receptor
  Ki: 0.016 ± 0.0017 µM
σ2 receptor
  Ki: 0.056 ± 0.0064 µM
HREC [5]; [6]
  IC50: 10.1 µM
HREC [5]; [7]
  IC50: 10.7 µM
HREC [5]; [8]
  IC50: 9 µM
HREC [5]; [9]
  IC50: 9.12 µM
HREC [5]; [10]
  IC50: 6.8 µM
HREC [5]; [11]
  IC50: 6.92 µM
[3]
  effect of coincubation with AC927 on the compound's anti-VEGF-A activity on HREC proliferation: did not alter
  effect of coincubation with PTZ on the compound's anti-VEGF-A activity on HREC proliferation: did not alter
  effect on VEGF-A-mediated HREC proliferation: completely prevented
  effect on HREC proliferation under basal conditions: did not induce significant changes
